Assay results from ChEMBL document CHEMBL3425466, “Light-switched inhibitors of protein tyrosine phosphatase PTP1B based on phosphonocarbonyl phenylalanine as photoactive phosphotyrosine mimetic” (Bioorg Med Chem, 2015).
Activity calls are given as the source filed them. The rule behind the calls is not given here. Numbered stars: 1 amine (or outer) side, 2 acyl side, 3 side chain; on linkers, the order of the positions; unused ones are H or OH. Square brackets hold non-standard residues; d marks the D form. Peptide text beside a SMILES is read from it. X1 = O=C(c1ccc(C[C@H](N[*:1])C(=O)[*:2])cc1)P(=O)(O)O

What was measured:
[1] = Photodimerization of the compound exposed to UV irradiation in presence of TEMPO radical; assay type: physicochemical
[2] = Photodimerization of the compound exposed to UV irradiation in presence of DTT; assay type: physicochemical
[3] = biological target: T1, Tyrosine-protein phosphatase non-receptor type 1 (Homo sapiens, UniProt P18031); assay: Inhibition of PTP1B catalytic domain (1 to 321 amino acids) (unknown origin) expressed in Escherichia coli Rosetta (DE3) incubated for 30 mins in absence of UV irradiation with 365 nm for 45 mins by pNPP assay
T1 sequence (P18031 whole entry): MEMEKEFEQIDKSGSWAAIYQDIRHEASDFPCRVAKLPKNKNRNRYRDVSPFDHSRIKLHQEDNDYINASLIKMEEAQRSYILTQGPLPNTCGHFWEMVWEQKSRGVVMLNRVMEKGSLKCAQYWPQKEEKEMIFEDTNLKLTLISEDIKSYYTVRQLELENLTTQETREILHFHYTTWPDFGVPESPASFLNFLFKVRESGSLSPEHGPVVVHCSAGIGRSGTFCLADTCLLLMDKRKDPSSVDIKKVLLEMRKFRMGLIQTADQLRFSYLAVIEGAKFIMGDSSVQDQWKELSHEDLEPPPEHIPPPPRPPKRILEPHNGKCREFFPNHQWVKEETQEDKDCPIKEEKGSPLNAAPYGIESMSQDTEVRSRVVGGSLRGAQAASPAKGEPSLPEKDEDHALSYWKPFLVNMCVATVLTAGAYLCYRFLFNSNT

[4] = biological target: T1, Tyrosine-protein phosphatase non-receptor type 1; assay: Inhibition of PTP1B catalytic domain (1 to 321 amino acids) (unknown origin) expressed in Escherichia coli Rosetta (DE3) incubated for 30 mins followed by UV irradiation with 365 nm for 45 mins by pNPP assay
[5] = biological target: T1, Tyrosine-protein phosphatase non-receptor type 1; assay: Inhibition of PTP1B catalytic domain (1 to 321 amino acids) (unknown origin) expressed in Escherichia coli Rosetta (DE3) incubated for 30 mins in absence of UV irradiation with 365 nm for 45 mins and in presence of 1 mM DTT by pNPP assay
[6] = biological target: T2, Tyrosine-protein phosphatase non-receptor type 1 (Homo sapiens) (UniProt P18031); conditions: 35 uM
T2 sequence (whole entry): T1 sequence (P18031 whole entry)
Description: Inhibition of PTP1B catalytic domain (1 to 321 amino acids) (unknown origin) expressed in Escherichia coli Rosetta (DE3) at 35 uM incubated for 30 mins followed by UV irradiation with 365 nm for 45 mins in presence of 100 uM DTT by pNPP assay

[7] = biological target: T1, Tyrosine-protein phosphatase non-receptor type 1; assay: Inhibition of PTP1B catalytic domain (1 to 321 amino acids) (unknown origin) expressed in Escherichia coli Rosetta (DE3) incubated for 30 mins followed by UV irradiation with 365 nm for 45 mins in presence of 1 mM DTT by pNPP assay
[8] = biological target: T2, Tyrosine-protein phosphatase non-receptor type 1 (Homo sapiens); conditions: 10 uM
Description: Inhibition of PTP1B catalytic domain (1 to 321 amino acids) (unknown origin) expressed in Escherichia coli Rosetta (DE3) at 10 uM incubated for 30 mins followed by UV irradiation with 365 nm for 45 mins by pNPP assay

[9] = biological target: T2, Tyrosine-protein phosphatase non-receptor type 1 (Homo sapiens); conditions: 10 uM; remark: listed apart in the source
Description: Inhibition of PTP1B catalytic domain (1 to 321 amino acids) (unknown origin) expressed in Escherichia coli Rosetta (DE3) at 10 uM incubated for 30 mins followed by UV irradiation with 365 nm for 45 mins in presence of 1 mM DTT by pNPP assay

Row | Compound | Activity [1] | Activity [2] | Ki [3] [µM] | Ki [4] [µM] | Ki [5] [µM] | inhibition [6] | Ki [7] [µM] | inhibition [8] | inhibition [9]
1 | Cc1ccc(C(=O)P(=O)(O)O)cc1 | Not Active | Not Active | – | – | – | – | – | – | –
2 | CC(=O)N[C@@H](CC(=O)O)C(=O)N[C@@H](C)C(=O)N[C@@H](CC(=O)O)C(=O)N[C@@H](CCC(=O)O)C(=O)N[C@@H](Cc1ccc(C(=O)P(=O)(O)O)cc1)C(=O)N[C@@H](CC(C)C)C(N)=O (Ac-DADE[X1]L-NH2) | – | – | 30 | 0.39 | 17.3 | inactive | 12.9 | – | –
3 | CC[C@H](C)[C@H](NC(=O)[C@H](Cc1ccc(C(=O)P(=O)(O)O)cc1)NC(=O)[C@H](CC(N)=O)NC(C)=O)C(=O)N[C@@H](CC(=O)O)C(=O)N[C@@H](CC(C)C)C(=O)N[C@@H](CC(=O)O)C(N)=O (Ac-N[X1]IDLD-NH2) | – | – | 48.8 | 0.41 | – | – | – | Active | inactive
